Results from patent publication US20260297085A1, “1 H-PYRROLO[2,3-B]PYRIDIN-4-YL]-2-OXOPYRROLIDINE-3-CARBONITRILE DERIVATIVES AS TYROSINE KINASE 2 (TYK2) INHIBITORS FOR THE TREATMENT OF INFLAMMATORY DISEASES” (BIOGEN MA INC., priority 2023, published 2026).
Where a name gives a salt, the structure may show the parent alone.

Key:
[1] = molecular target: T1, human TYK2 kinase domain (JH1) (Homo sapiens, UniProt P29597); assay: JH1 biochemical assay for TYK2 (ADP-Glo kinase assay, recombinant JH1 catalytic domain, JAK3-974 peptide, 10 μM ATP)
T1 construct: recombinantly generated catalytic kinase (also known as JH1) domain of human JAK1, JAK2, JAK3 and TYK2
T1 sequence (P29597 897-1176 limits assumed): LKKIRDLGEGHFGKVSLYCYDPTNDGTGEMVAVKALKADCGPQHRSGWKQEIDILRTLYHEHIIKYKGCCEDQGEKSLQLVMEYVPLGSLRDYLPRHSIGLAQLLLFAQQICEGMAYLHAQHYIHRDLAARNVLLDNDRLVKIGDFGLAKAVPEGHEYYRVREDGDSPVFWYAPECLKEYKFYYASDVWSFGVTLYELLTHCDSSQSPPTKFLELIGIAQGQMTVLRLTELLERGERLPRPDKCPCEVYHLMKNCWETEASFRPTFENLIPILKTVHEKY
Outline: (§1)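 Compounds were titrated in 11 points of 3-fold dilution starting at 10 μM or 1 μM. Enzyme (JAK1 4 nM, JAK2 0.2 nM, JAK3 0.3 nM, TYK2 2 nM) and 50 μM peptide reacted for 100 minutes, followed by ADP-to-luminescence detection; IC50 by 4-parameter fit.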

[2] = molecular target: T2, human JAK1 kinase domain (JH1) (Homo sapiens, UniProt P23458); assay: JH1 biochemical assay for JAK1 (ADP-Glo kinase assay, recombinant JH1 catalytic domain, JAK3-342 peptide, 35 μM ATP)
T2 construct: recombinantly generated catalytic kinase (also known as JH1) domain of human JAK1, JAK2, JAK3 and TYK2
Outline: as §1

[3] = molecular target: T3, human JAK2 kinase domain (JH1) (Homo sapiens, UniProt O60674); assay: JH1 biochemical assay for JAK2 (ADP-Glo kinase assay, recombinant JH1 catalytic domain, JAK3-974 peptide, 15 μM ATP)
T3 construct: recombinantly generated catalytic kinase (also known as JH1) domain of human JAK1, JAK2, JAK3 and TYK2
Outline: as §1

[4] = molecular target: T4, human JAK3 kinase domain (JH1) (Homo sapiens, UniProt P52333); assay: JH1 biochemical assay for JAK3 (ADP-Glo kinase assay, recombinant JH1 catalytic domain, JAK3-974 peptide, 4 μM ATP)
T4 construct: recombinantly generated catalytic kinase (also known as JH1) domain of human JAK1, JAK2, JAK3 and TYK2
Outline: as §1

[5] = molecular target: Tyk2 kinase activity on STAT4 in NK92 cells (Homo sapiens, UniProt P29597); assay: pSTAT4 cell assay (MSD; NK92 cells, 30 ng/mL IL2 stimulation); assay type: cell-based; conditions: 30 ng/mL IL2, 15 minutes
Outline: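 Serum-starved NK92 cells were preincubated 1 hr with compound (10-point, four-fold dilutions from 10 μM), then stimulated with 30 ng/mL IL2 for 15 minutes. Lysates were read on an MSD plate assay using anti-STAT4 antibodies, and IC50 came from a 4-parameter logistic fit of normalized percent activity.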

[6] = molecular target: JAK2 kinase activity on STAT5 in TF1 cells (Homo sapiens, UniProt O60674); assay: pSTAT5 cell assay (MSD; TF1 cells, 30 ng/mL IL-3 stimulation); assay type: cell-based; conditions: 30 ng/mL IL-3, 15 minutes
Outline: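 Serum-starved TF1 cells with native JAK2/STAT5 were pretreated 1 h with compound (10-point four-fold dilutions from 10 μM), then stimulated 15 min with 30 ng/mL IL-3. pSTAT5 in lysates quantified by MSD immunoassay; normalized percent activity fitted to a 4-parameter logistic curve for IC50.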

[7] = molecular target: JAK1 kinase activity on STAT3 in TF1 cells (Homo sapiens, UniProt P23458); assay: pSTAT3 cell assay (MSD; TF1 cells, 30 ng/mL IL-6 stimulation); assay type: cell-based; conditions: 30 ng/mL IL-6, 15 minutes
Outline: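 Serum-starved TF1 cells were pretreated with compound for 1 hour (10-point, four-fold dilutions from 10 μM), then stimulated with IL-6 for 15 minutes. Lysates were assayed for pSTAT3 by MSD with anti-STAT3 antibodies; IC50 came from a 4-parameter logistic fit of normalized percent activity.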

T3 sequence (O60674 849-1124 limits assumed): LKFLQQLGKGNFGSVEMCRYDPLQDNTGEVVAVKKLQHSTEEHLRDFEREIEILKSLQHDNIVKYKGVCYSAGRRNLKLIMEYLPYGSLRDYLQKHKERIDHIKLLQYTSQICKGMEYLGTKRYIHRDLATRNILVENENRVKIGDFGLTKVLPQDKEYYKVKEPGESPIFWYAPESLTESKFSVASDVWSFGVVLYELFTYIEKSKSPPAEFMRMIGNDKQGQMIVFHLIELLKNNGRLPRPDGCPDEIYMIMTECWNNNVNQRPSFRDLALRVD
T4 sequence (P52333 822-1111 limits assumed): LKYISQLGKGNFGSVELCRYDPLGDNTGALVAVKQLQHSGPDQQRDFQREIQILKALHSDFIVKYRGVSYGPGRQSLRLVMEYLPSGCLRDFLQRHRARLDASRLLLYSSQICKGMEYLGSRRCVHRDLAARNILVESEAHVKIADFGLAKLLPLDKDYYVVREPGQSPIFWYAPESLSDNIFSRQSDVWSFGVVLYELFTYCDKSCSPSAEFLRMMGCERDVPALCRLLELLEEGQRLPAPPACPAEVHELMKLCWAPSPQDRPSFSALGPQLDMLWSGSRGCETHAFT
Chain of JAK2 kinase activity on STAT5 in TF1 cells (O60674 whole entry): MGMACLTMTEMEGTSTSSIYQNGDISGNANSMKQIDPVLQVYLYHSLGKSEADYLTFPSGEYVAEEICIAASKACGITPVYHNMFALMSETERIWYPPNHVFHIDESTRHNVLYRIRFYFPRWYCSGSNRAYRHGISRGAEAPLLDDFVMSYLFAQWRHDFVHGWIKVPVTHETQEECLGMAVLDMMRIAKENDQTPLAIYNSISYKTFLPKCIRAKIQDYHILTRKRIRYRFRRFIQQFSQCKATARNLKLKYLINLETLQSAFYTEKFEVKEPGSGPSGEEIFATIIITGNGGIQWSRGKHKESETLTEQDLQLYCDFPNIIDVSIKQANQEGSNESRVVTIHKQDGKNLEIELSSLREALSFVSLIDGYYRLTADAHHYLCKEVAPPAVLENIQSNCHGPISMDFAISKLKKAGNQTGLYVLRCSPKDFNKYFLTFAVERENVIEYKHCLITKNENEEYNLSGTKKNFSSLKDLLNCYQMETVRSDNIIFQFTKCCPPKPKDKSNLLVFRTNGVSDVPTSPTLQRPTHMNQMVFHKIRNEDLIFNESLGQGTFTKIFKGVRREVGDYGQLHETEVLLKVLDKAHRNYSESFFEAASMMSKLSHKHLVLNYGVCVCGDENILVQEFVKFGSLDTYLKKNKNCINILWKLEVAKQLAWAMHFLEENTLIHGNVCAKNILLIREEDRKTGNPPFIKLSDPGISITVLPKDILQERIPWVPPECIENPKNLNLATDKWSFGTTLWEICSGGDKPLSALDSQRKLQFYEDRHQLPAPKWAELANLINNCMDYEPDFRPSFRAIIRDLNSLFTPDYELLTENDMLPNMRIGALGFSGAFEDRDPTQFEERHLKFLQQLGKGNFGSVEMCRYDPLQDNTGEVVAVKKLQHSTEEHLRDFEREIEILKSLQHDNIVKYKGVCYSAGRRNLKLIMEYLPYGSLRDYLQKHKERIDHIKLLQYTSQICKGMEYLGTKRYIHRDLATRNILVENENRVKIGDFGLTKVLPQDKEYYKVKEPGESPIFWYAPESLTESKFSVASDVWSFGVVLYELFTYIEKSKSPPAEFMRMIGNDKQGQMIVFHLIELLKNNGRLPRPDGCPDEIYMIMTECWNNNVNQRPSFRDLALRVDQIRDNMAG
Chain of Tyk2 kinase activity on STAT4 in NK92 cells (P29597 whole entry): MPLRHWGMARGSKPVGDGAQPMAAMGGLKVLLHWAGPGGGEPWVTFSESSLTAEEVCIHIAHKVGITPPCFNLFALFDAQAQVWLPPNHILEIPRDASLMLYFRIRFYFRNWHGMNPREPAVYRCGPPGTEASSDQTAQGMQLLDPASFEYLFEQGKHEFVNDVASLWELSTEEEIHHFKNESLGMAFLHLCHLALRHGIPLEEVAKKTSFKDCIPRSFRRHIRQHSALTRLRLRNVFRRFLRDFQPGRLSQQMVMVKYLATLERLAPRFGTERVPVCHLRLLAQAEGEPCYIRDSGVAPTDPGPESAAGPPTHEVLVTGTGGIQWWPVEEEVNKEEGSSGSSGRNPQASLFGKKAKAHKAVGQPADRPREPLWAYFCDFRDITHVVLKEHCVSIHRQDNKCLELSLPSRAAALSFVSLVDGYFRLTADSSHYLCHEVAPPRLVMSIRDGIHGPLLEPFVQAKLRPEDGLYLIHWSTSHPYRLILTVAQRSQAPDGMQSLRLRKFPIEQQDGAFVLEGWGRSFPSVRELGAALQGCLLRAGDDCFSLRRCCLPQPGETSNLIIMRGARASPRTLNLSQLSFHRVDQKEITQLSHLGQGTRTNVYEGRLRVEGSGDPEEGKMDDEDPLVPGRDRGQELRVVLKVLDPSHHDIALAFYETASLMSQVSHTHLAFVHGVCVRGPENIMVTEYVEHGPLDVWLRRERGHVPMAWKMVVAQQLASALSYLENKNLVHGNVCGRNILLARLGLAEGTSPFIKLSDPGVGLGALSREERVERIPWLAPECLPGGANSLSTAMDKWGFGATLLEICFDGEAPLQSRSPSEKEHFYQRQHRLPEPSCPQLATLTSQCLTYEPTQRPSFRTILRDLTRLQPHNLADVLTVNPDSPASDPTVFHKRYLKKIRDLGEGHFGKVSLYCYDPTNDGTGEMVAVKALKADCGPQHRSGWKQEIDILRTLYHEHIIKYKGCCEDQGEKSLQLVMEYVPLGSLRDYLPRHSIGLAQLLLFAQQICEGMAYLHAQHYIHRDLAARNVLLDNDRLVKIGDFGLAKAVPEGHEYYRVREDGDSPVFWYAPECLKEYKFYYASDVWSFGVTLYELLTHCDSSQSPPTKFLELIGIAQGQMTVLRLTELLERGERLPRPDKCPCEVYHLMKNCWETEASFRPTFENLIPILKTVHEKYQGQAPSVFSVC
T2 sequence (P23458 875-1153 limits assumed): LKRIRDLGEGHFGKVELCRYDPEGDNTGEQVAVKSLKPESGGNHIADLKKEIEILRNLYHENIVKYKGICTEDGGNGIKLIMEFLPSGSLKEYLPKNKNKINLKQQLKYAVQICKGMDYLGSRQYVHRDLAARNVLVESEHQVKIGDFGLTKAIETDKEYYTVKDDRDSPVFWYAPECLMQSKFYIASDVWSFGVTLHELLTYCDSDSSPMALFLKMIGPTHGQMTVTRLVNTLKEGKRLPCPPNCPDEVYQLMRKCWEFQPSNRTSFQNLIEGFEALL
Chain of JAK1 kinase activity on STAT3 in TF1 cells (P23458 whole entry): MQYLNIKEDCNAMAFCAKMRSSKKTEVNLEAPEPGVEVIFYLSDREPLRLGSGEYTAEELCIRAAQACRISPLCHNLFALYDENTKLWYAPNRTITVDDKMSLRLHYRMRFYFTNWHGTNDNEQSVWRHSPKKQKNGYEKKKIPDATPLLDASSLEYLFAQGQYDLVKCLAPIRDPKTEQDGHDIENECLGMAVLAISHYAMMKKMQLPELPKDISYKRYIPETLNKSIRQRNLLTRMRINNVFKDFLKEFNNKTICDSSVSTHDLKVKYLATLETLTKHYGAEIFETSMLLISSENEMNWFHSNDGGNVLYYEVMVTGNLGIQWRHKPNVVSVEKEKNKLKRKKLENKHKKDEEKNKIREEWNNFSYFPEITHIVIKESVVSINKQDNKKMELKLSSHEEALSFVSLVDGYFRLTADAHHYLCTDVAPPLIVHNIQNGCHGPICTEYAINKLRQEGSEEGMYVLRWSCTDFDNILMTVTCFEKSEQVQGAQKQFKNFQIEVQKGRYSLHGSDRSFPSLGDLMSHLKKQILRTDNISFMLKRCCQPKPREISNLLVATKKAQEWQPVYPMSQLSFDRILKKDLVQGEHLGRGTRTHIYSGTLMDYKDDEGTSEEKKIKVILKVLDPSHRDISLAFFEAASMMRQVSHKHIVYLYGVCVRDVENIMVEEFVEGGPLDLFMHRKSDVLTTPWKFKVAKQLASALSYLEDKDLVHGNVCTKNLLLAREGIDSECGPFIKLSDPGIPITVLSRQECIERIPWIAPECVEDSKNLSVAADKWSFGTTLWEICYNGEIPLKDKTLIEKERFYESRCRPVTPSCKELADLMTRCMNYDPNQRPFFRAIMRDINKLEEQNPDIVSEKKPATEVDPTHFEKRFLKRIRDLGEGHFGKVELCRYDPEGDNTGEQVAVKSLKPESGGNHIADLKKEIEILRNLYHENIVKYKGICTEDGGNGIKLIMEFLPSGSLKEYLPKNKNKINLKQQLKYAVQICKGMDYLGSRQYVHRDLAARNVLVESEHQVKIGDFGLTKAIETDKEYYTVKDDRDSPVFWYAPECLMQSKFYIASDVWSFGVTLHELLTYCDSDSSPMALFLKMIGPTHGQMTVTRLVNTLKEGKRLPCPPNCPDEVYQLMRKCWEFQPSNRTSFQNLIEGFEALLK

Compound | IC50 ([1]; JH1 kinase domain, ADP-Glo) | IC50 ([2]; JH1 kinase domain, ADP-Glo) | IC50 ([3]; JH1 kinase domain, ADP-Glo) | IC50 ([4]; JH1 kinase domain, ADP-Glo) | IC50 [5] | IC50 [6] | IC50 [7] | IC50 ([1]; TYK2 JH1, ADP-Glo) | IC50 ([2]; JAK1 JH1, ADP-Glo) | IC50 ([3]; JAK2 JH1, ADP-Glo) | IC50 ([4]; JAK3 JH1, ADP-Glo)
C[C@@H]1CN(c2ccnn3cc(-c4cccc(C(F)F)n4)cc23)C(=O)[C@]1(C#N)C1CC1 [Example 135, (3R,4S)-3-cyclopropyl-1-(6-(6-(difluoromethyl)pyridin-2-yl)pyrrolo[1,2-b]pyridazin-4-yl)-4-methyl-2-oxopyrrolidine-3-carbonitrile trifluoroacetate] | 5 to 20 nM | 100 to 1000 nM | 100 to 1000 nM | 100 to 1000 nM | > 100 nM | > 10000 nM | 1000 to 5000 nM | – | – | – | –
C[C@@H]1CN(c2ccnn3cc(-c4cc[nH]n4)cc23)C(=O)[C@]1(C#N)C1CC1 [Example 66, (3R,4S)-1-(6-(1H-pyrazol-3-yl)pyrrolo[1,2-b]pyridazin-4-yl)-3-cyclopropyl-4-methyl-2-oxopyrrolidine-3-carbonitrile trifluoroacetate] | 5 to 20 nM | 100 to 1000 nM | 100 to 1000 nM | 100 to 1000 nM | > 100 nM | > 10000 nM | 5000 to 10000 nM | – | – | – | –
C[C@@H]1CN(c2ccnn3cc(-c4cnn(C5CCOC5)c4)cc23)C(=O)[C@]1(C#N)C1CC1 (stereo partly drawn) [Example 162, (3R,4S)-3-cyclopropyl-4-methyl-2-oxo-1-(6-(1-(tetrahydrofuran-3-yl)-1H-pyrazol-4-yl)pyrrolo[1,2-b]pyridazin-4-yl)pyrrolidine-3-carbonitrile] | < 5 nM | < 100 nM | < 100 nM | < 100 nM | 20 to 50 nM | 1000 to 5000 nM | 1000 to 5000 nM | – | – | – | –
C[C@@H]1CN(c2nc(-c3cnn(C)c3)cn3ncc(Cl)c23)C(=O)[C@]1(C#N)C1CC1 [Example 206, (3R,4S)-1-(3-chloro-6-(1-methyl-1H-pyrazol-4-yl)pyrazolo[1,5-a]pyrazin-4-yl)-3-cyclopropyl-4-methyl-2-oxopyrrolidine-3-carbonitrile] | 5 to 20 nM | 100 to 1000 nM | 100 to 1000 nM | 100 to 1000 nM | > 100 nM | > 10000 nM | > 10000 nM | – | – | – | –
C[C@@H]1CN(c2ccnn3cc(-c4cnn([C@H]5CC5(F)F)c4)cc23)C(=O)[C@]1(C#N)C1CC1 (single isomer, unassigned) [Example 156] | < 5 nM | 100 to 1000 nM | 100 to 1000 nM | < 100 nM | 50 to 100 nM | 1000 to 5000 nM | 1000 to 5000 nM | – | – | – | –
C[C@@H]1CN(c2cc(-c3cnn(C4COC4)c3)cc3ncsc23)C(=O)[C@]1(C#N)C1CC1 [Example 348, (3R,4S)-3-cyclopropyl-4-methyl-1-(5-(1-(oxetan-3-yl)-1H-pyrazol-4-yl)benzo[d]thiazol-7-yl)-2-oxopyrrolidine-3-carbonitrile] | – | – | – | – | 50 to 100 nM | 100 to 1000 nM | 100 to 1000 nM | < 5 nM | < 100 nM | < 100 nM | < 100 nM
C[C@@H]1CN(c2ccnn3cc(-c4ccnc(F)c4)cc23)C(=O)[C@]1(C#N)C1CC1 [Example 73, (3R,4S)-3-cyclopropyl-1-(6-(2-fluoropyridin-4-yl)pyrrolo[1,2-b]pyridazin-4-yl)-4-methyl-2-oxopyrrolidine-3-carbonitrile] | 5 to 20 nM | 100 to 1000 nM | 100 to 1000 nM | 100 to 1000 nM | > 100 nM | > 10000 nM | 1000 to 5000 nM | – | – | – | –
C[C@@H]1CN(c2ccnn3cc(-c4cnc(C(F)F)s4)cc23)C(=O)[C@]1(C#N)C1CC1 [Example 101, (3R,4S)-3-cyclopropyl-1-(6-(2-(difluoromethyl)thiazol-5-yl)pyrrolo[1,2-b]pyridazin-4-yl)-4-methyl-2-oxopyrrolidine-3-carbonitrile trifluoroacetate] | 5 to 20 nM | 100 to 1000 nM | 100 to 1000 nM | 100 to 1000 nM | > 100 nM | > 10000 nM | 1000 to 5000 nM | – | – | – | –
C[C@@H]1CN(c2nc(-c3ccc4cnn(C)c4c3)cn3nccc23)C(=O)[C@]1(C#N)C1CC1 [Example 259, (3R,4S)-3-cyclopropyl-4-methyl-1-(6-(1-methyl-1H-indazol-6-yl)pyrazolo[1,5-a]pyrazin-4-yl)-2-oxopyrrolidine-3-carbonitrile trifluoroacetate] | – | – | – | – | 5 to 20 nM | 100 to 1000 nM | < 100 nM | < 5 nM | < 100 nM | < 100 nM | < 100 nM
Cc1ccc(-c2cn3nccc3c(N3C[C@@H](C)[C@@](C#N)(C4CC4)C3=O)n2)cn1 [Example 233, (3R,4S)-3-cyclopropyl-4-methyl-1-(6-(6-methylpyridin-3-yl)pyrazolo[1,5-a]pyrazin-4-yl)-2-oxopyrrolidine-3-carbonitrile trifluoroacetate] | – | – | – | – | > 100 nM | 1000 to 5000 nM | 1000 to 5000 nM | < 5 nM | < 100 nM | 100 to 1000 nM | < 100 nM
CCOCCn1cc(-c2cc3c(N4C[C@@H](C)[C@@](C#N)(C5CC5)C4=O)ccnn3c2)cn1 [Example 172, (3R,4S)-3-cyclopropyl-1-(6-(1-(2-ethoxyethyl)-1H-pyrazol-4-yl)pyrrolo[1,2-b]pyridazin-4-yl)-4-methyl-2-oxopyrrolidine-3-carbonitrile] | < 5 nM | 100 to 1000 nM | 100 to 1000 nM | 100 to 1000 nM | > 100 nM | 5000 to 10000 nM | 1000 to 5000 nM | – | – | – | –
C[C@@H]1CN(c2ccnn3cc(-c4cnn([C@H]5C[C@@](F)(C#N)C5)c4)cc23)C(=O)[C@]1(C#N)C1CC1 [Example 326, (3R,4S)-1-(6-(1-((1r,3R)-3-cyano-3-fluorocyclobutyl)-1H-pyrazol-4-yl)pyrrolo[1,2-b]pyridazin-4-yl)-3-cyclopropyl-4-methyl-2-oxopyrrolidine-3-carbonitrile] | – | – | – | – | > 100 nM | 1000 to 5000 nM | 1000 to 5000 nM | < 5 nM | < 100 nM | < 100 nM | < 100 nM
Cc1cc(-c2cc3c(N4CC[C@@](C#N)(C5CC5)C4=O)ccnn3c2)on1 [Example 11, (S)-3-cyclopropyl-1-(6-(3-methylisoxazol-5-yl)pyrrolo[1,2-b]pyridazin-4-yl)-2-oxopyrrolidine-3-carbonitrile] | 20 to 50 nM | 1000 to 5000 nM | 1000 to 5000 nM | 100 to 1000 nM | > 100 nM | > 10000 nM | > 10000 nM | – | – | – | –
C[C@@H]1CN(c2ncnc3[nH]c(-c4cnn(C)c4)cc23)C(=O)[C@]1(C#N)C1CC1 [Example 6, (3R,4S)-3-cyclopropyl-4-methyl-1-(6-(1-methyl-1H-pyrazol-4-yl)-7H-pyrrolo[2,3-d]pyrimidin-4-yl)-2-oxopyrrolidine-3-carbonitrile] | 50 to 100 nM | 1000 to 5000 nM | 1000 to 5000 nM | 1000 to 5000 nM | > 100 nM | > 10000 nM | > 10000 nM | – | – | – | –
